Source: PubChem BioAssay (NCI)
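Growth conditions: 96-well plates. Treatment: test compound, 48 hours, 5 concentrations. Analysis: linear interpolation between bracketing concentrations; unreached endpoints set to highest concentration. GI50: concentration for 50% inhibition of growth. Definition used: TGI = concentration required for complete inhibition of growth.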

Experiments:
Test in all cases: DTP human tumour cell line panel, 48 h
[1] = test system: MOLT-4 leukemia
[2] = test system: RPMI-8226 leukemia
[3] = test system: KM20L2 colon
[4] = test system: SK-MEL-28 melanoma
[5] = test system: DLD-1 colon
[6] = test system: COLO 205 colon
[7] = test system: TK-10 renal
[8] = test system: EKVX NSCLC
[9] = test system: DU-145 prostate
[10] = test system: BT-549 breast

Structure (SMILES): Cc1ccc(C2=[N+]([O-])c3ccccc3C2=O)cc1
- TGI [1]: > 70 µM
- TGI [2]: > 72 µM
- TGI [3]: 98.6 µM
- TGI [4]: 22 µM
- TGI [5]: 57.2 µM
- TGI [6]: > 72.8 µM
- TGI [7]: > 31.6 µM
- TGI [8]: 51.7 µM

Structure (SMILES): COC(=O)C1Cc2c(n(C)c3ccccc23)C(c2ccccc2)N1 (stereo unspecified)
- TGI [1]: > 100 µM
- TGI [2]: > 100 µM
- TGI [3]: > 100 µM
- TGI [4]: > 100 µM
- TGI [6]: > 100 µM
- TGI [7]: > 100 µM
- TGI [8]: > 100 µM

Structure (SMILES): NC(=O)c1csc(C2O[C@@H](COP(=O)(O)OP(=O)(O)OC[C@H]3OC(n4cnc5c(N)ncnc54)[C@H](O)[C@@H]3O)[C@H](O)[C@@H]2O)n1 (stereo partly specified)
- TGI [1]: > 100 µM
- TGI [2]: > 100 µM
- TGI [3]: > 100 µM
- TGI [4]: > 100 µM
- TGI [5]: > 100 µM
- TGI [6]: > 100 µM
- TGI [7]: > 100 µM
- TGI [8]: > 100 µM

Structure (SMILES): O=C(Nc1ccccc1)O/N=C1/CCCC/C1=C\c1ccccc1
- TGI [1]: 26.5 µM
- TGI [2]: 52.5 µM
- TGI [3]: 43.2 µM
- TGI [4]: 31.8 µM
- TGI [5]: 29.4 µM
- TGI [6]: 28.2 µM
- TGI [7]: 31.7 µM

Structure (SMILES): O=[N+]([O-])c1ccc2c(c1)OCCOCCOc1ccc([N+](=O)[O-])cc1OCCOCCO2
- TGI [1]: > 100 µM
- TGI [2]: > 100 µM
- TGI [3]: > 100 µM
- TGI [4]: > 100 µM
- TGI [6]: > 100 µM
- TGI [7]: > 100 µM
- TGI [8]: > 100 µM

Structure (SMILES): N#CC12CCC(O)C(CC1)C2=O (stereo unspecified)
- TGI [1]: > 100 µM
- TGI [2]: 57.1 µM
- TGI [3]: > 100 µM
- TGI [4]: > 100 µM
- TGI [5]: > 100 µM
- TGI [6]: > 100 µM
- TGI [7]: > 100 µM
- TGI [8]: > 100 µM

Structure (SMILES): CC(C)(C)c1ccc(Oc2ccc(C#N)c(C#N)c2)c(C(C)(C)C)c1
- TGI [1]: 52.9 µM
- TGI [2]: 43.1 µM
- TGI [3]: > 100 µM
- TGI [4]: > 100 µM
- TGI [5]: > 100 µM
- TGI [6]: > 59.1 µM
- TGI [7]: > 100 µM
- TGI [8]: > 100 µM

Structure (SMILES): O=C1C(c2ccc(Cl)cc2)=[N+]([O-])c2ccccc21
- TGI [1]: > 100 µM
- TGI [2]: > 100 µM
- TGI [3]: 52.1 µM
- TGI [4]: 28.5 µM
- TGI [5]: 30.1 µM
- TGI [6]: 32.4 µM
- TGI [7]: 30.1 µM
- TGI [8]: 28.9 µM

Structure (SMILES): O=C1C2c3[nH]c4ccccc4c3C3CCSCC3C2C(=O)N1c1ccccc1 (stereo unspecified)
- TGI [1]: > 100 µM
- TGI [2]: > 100 µM
- TGI [3]: > 100 µM
- TGI [4]: > 100 µM
- TGI [5]: > 100 µM
- TGI [6]: > 100 µM
- TGI [7]: > 100 µM
- TGI [8]: > 100 µM

Structure (SMILES): COc1c2c(c(OC)c3c(=O)cc(C/C(=N/NC(=O)C[n+]4ccccc4)C(=O)Nc4cc(C)ccc4C)oc13)OCO2
- TGI [1]: > 100 µM
- TGI [2]: > 100 µM
- TGI [3]: > 100 µM
- TGI [4]: > 100 µM
- TGI [5]: > 100 µM
- TGI [6]: > 100 µM
- TGI [7]: > 100 µM
- TGI [8]: > 100 µM

Structure (SMILES): N.N.NCCCCN.O=C([O-])CC(=O)[O-].O=C([O-])CC(=O)[O-].[Pt+4].[Pt+4]
- GI50 [1]: 52.8 µM
- TGI [1]: > 100 µM
- GI50 [2]: > 100 µM
- TGI [2]: > 100 µM
- GI50 [3]: > 100 µM
- TGI [3]: > 100 µM
- GI50 [4]: > 100 µM
- TGI [4]: > 100 µM
- GI50 [5]: > 100 µM
- TGI [5]: > 100 µM
- GI50 [6]: > 100 µM
- TGI [6]: > 100 µM
- GI50 [7]: > 100 µM
- TGI [7]: > 100 µM
- GI50 [8]: > 100 µM
- TGI [8]: > 100 µM

Structure (SMILES): Cc1ccc(C)c(NC(=O)CC2C(=O)Nc3ccccc3S2(=O)=O)c1 (stereo unspecified)
- TGI [1]: > 100 µM
- TGI [2]: > 100 µM
- TGI [3]: > 100 µM
- TGI [4]: > 100 µM
- TGI [5]: > 100 µM
- TGI [7]: > 100 µM
- TGI [8]: > 100 µM

Structure (SMILES): O=C(O)C1CCCN1Cc1c[nH]c2ccccc12 (stereo unspecified)
- TGI [9]: > 100 µM
- TGI [1]: > 100 µM
- TGI [2]: > 100 µM
- TGI [10]: > 100 µM
- TGI [4]: > 100 µM
- TGI [6]: > 100 µM
- TGI [7]: > 100 µM
- TGI [8]: > 100 µM

Structure (SMILES): COC(=O)/C=C1\SC(=Nc2ccc(C(F)(F)F)cc2)N(CCc2c[nH]c3ccccc23)C1=O
- GI50 [9]: 1.87 µM
- TGI [9]: 4.21 µM
- GI50 [1]: 1.22 µM
- TGI [1]: 5.51 µM
- GI50 [2]: 1.13 µM
- TGI [2]: 4.3 µM
- GI50 [10]: 1.53 µM
- TGI [10]: 3.16 µM
- GI50 [4]: 1.87 µM
- TGI [4]: 3.55 µM
- GI50 [6]: 1.88 µM
- TGI [6]: 3.65 µM
- GI50 [7]: 2.06 µM
- TGI [7]: 3.94 µM
- GI50 [8]: 1.86 µM
- TGI [8]: 3.81 µM

Structure (SMILES): COC1CCC2C(=O)CCCC2O1 (stereo unspecified)
- TGI [1]: > 100 µM
- TGI [2]: > 100 µM
- TGI [3]: > 100 µM
- TGI [5]: > 100 µM
- TGI [6]: > 100 µM
- TGI [7]: > 100 µM
- TGI [8]: > 100 µM

Structure (SMILES): O=C(CSc1nc2ccc([N+](=O)[O-])cc2[nH]1)Nc1cccc(C(F)(F)F)c1
- GI50 [9]: 3.54 µM
- TGI [9]: 15 µM
- GI50 [1]: 2.71 µM
- TGI [1]: 19.5 µM
- GI50 [2]: 1.37 µM
- TGI [2]: > 23.6 µM
- GI50 [10]: 2.63 µM
- TGI [10]: 11.6 µM
- GI50 [4]: 2.34 µM
- TGI [4]: 13.5 µM
- GI50 [6]: 1.71 µM
- TGI [6]: 3.47 µM
- GI50 [7]: 3.14 µM
- TGI [7]: 10.9 µM
- GI50 [8]: 1.84 µM
- TGI [8]: 9.94 µM

Structure (SMILES): Cc1cc(S(=O)(=O)Nc2nnc(-c3ccco3)c(-c3ccco3)n2)c(SCc2ccccc2)cc1Cl
- GI50 [9]: 17 µM
- TGI [9]: 32.5 µM
- GI50 [1]: 17.9 µM
- TGI [1]: 53 µM
- GI50 [2]: 18.4 µM
- TGI [2]: 61.4 µM
- GI50 [10]: 25.3 µM
- TGI [10]: 50.2 µM
- GI50 [4]: 20.7 µM
- TGI [4]: 40.5 µM
- GI50 [6]: 26.1 µM
- TGI [6]: 56.3 µM
- GI50 [7]: 26.7 µM
- TGI [7]: 74.8 µM
- GI50 [8]: 17.5 µM
- TGI [8]: 37.6 µM

Structure (SMILES): COC(=O)C/C(C)=C/[C@@H](O)[C@H]1O[C@@H]2CC/C(Cl)=C/C/C=C(/C)[C@H](OC(C)=O)CC(=O)O[C@@H]1C2
- GI50 [9]: 1.29 µM
- TGI [9]: > 25 µM
- GI50 [1]: 6.15 µM
- TGI [1]: 19.8 µM
- GI50 [2]: 1.44 µM
- TGI [2]: 7.24 µM
- GI50 [10]: 1.89 µM
- TGI [10]: 7.73 µM
- GI50 [4]: 1.04 µM
- TGI [4]: 5.75 µM
- GI50 [6]: 1.72 µM
- TGI [6]: 7.51 µM
- GI50 [7]: 0.489 µM
- TGI [7]: 1.32 µM
- GI50 [8]: 4.93 µM
- TGI [8]: 14.3 µM

Structure (SMILES): O=C1C(Cl)=C(Oc2ccccc2)C(=O)c2ccccc21
- GI50 [9]: 16.2 µM
- TGI [9]: 31 µM
- GI50 [1]: 4.09 µM
- TGI [1]: 30.7 µM
- GI50 [2]: 2.69 µM
- TGI [2]: 11.4 µM
- GI50 [10]: 2.86 µM
- TGI [10]: 9.3 µM
- GI50 [4]: 13.5 µM
- TGI [4]: 27.1 µM
- GI50 [6]: 1.68 µM
- TGI [6]: 3.24 µM
- GI50 [7]: 1.87 µM
- TGI [7]: 3.41 µM
- GI50 [8]: 4.77 µM
- TGI [8]: 24 µM

Structure (SMILES): O=C1c2cccnc2-c2nc(-c3ccccn3)cc3c2c1nc1ccccc13
- GI50 [9]: 0.156 µM
- TGI [9]: 0.57 µM
- GI50 [1]: 0.211 µM
- TGI [1]: 4.09 µM
- GI50 [2]: 0.253 µM
- TGI [2]: 1.03 µM
- GI50 [10]: 0.249 µM
- TGI [10]: 0.672 µM
- GI50 [4]: 0.452 µM
- TGI [4]: 1.75 µM
- GI50 [6]: 0.804 µM
- TGI [6]: 3.35 µM
- GI50 [7]: 0.296 µM
- TGI [7]: 1.11 µM
- GI50 [8]: 0.62 µM
- TGI [8]: 2.1 µM
